Results: BigSolDB 2.1

CC(=O)c1cnccn1
solubility (mole fraction)
Conditions | 268.35 K | 273.15 K | 278.15 K | 283.21 K | 288.15 K | 293.05 K | 298.15 K | 303.15 K | 308.35 K
in DMF | 0.0822 | 0.0972 | 0.116 | 0.139 | 0.165 | 0.194 | 0.23 | 0.269 | 0.314
in NMP | 0.117 | 0.129 | 0.15 | 0.174 | 0.203 | 0.234 | 0.271 | 0.31 | 0.355
in acetone | 0.0511 | 0.0601 | 0.0727 | 0.0826 | 0.0977 | 0.119 | 0.137 | 0.153 | 0.174
in ethanol | 0.0073 | 0.0111 | 0.0136 | 0.0178 | 0.0231 | 0.0347 | 0.0433 | 0.0542 | 0.0727
in ethyl acetate | 0.0636 | 0.0746 | 0.0889 | 0.101 | 0.116 | 0.144 | 0.164 | 0.186 | 0.209
in isopropanol | 0.0052 | 0.0075 | 0.0106 | 0.0128 | 0.0195 | 0.0299 | 0.0382 | 0.0509 | 0.0698
in methanol | 0.013 | 0.0156 | 0.0179 | 0.0224 | 0.0281 | 0.0405 | 0.0485 | 0.0596 | 0.077
